Experimental data reported in ChEMBL document CHEMBL4765380, “Synthesis, structure and anticancer activity of new geldanamycin amine analogs containing C(17)- or C(20)- flexible and rigid arms as well as closed or open ansa-bridges” (Eur J Med Chem, 2020).

Tests used:
A549 = assay: Antiproliferative activity against human A549 cells assessed as reduction in cell growth incubated for 72 hrs by SRB assay; type: functional, cell-based; conditions: A549, 72 h
[1] = Binding affinity to HSP90 (unknown origin); parameters: species or system Homo sapiens
SK-OV-3 = assay: Antiproliferative activity against human SK-OV-3 cells assessed as reduction in cell growth incubated for 72 hrs by SRB assay; type: functional, cell-based; conditions: SK-OV-3, 72 h
[2] = Selectivity index, ratio of IC50 for cytotoxicity against human HDF cells to IC50 for cytotoxicity against human SK-BR-3 cells; type: toxicity, cell-based; conditions: HDF cells versus SK-BR-3 cells, read-out: Ratio IC50
SK-BR-3 = assay: Antiproliferative activity against human SK-BR-3 cells assessed as reduction in cell growth incubated for 72 hrs by SRB assay; type: functional, cell-based; conditions: SK-BR-3, 72 h
PC-3 = assay: Antiproliferative activity against human PC-3 cells assessed as reduction in cell growth incubated for 72 hrs by SRB assay; type: functional, cell-based; conditions: PC-3, 72 h
[3] = Selectivity index, ratio of IC50 for cytotoxicity against human HDF cells to IC50 for cytotoxicity against human A549 cells; type: toxicity, cell-based; conditions: HDF cells versus A549 cells, read-out: Ratio IC50
U-87 MG = assay: Antiproliferative activity against human U-87 MG cells assessed as reduction in cell growth incubated for 72 hrs by SRB assay; type: functional, cell-based, U-87MG ATCC
[4] = Cytotoxicity against human HDF cells assessed as reduction in cell growth incubated for 72 hrs by SRB assay; type: cell-based; conditions: HDFa
[5] = Selectivity index, ratio of IC50 for cytotoxicity against human HDF cells to IC50 for cytotoxicity against human SK-OV-3 cells
[6] = Selectivity index, ratio of IC50 for cytotoxicity against human HDF cells to IC50 for cytotoxicity against human PC-3 cells; type: toxicity, cell-based; conditions: HDF cells versus PC-3 cells, read-out: Ratio IC50
[7] = Binding affinity to yeast HSP90 assessed as dissociation constant by isothermal titration calorimetry; parameters: species or system Saccharomyces cerevisiae
[8] = Selectivity index, ratio of IC50 for cytotoxicity against human HDF cells to IC50 for cytotoxicity against human U-87 MG cells; type: toxicity, cell-based; conditions: HDF cells versus U-87 MG cells, read-out: Ratio IC50

IC50 (A549): 990 nM | Kd [1]: 10.5 µM | IC50 (SK-OV-3): 940 nM | IC50 (SK-BR-3): 870 nM | IC50 (PC-3): 730 nM | IC50 (U-87 MG): 810 nM | Kd [7]: 1220 nM
SMILES: COC1=C2C[C@@H](C)C[C@H](OC)[C@H](O)[C@@H](C)/C=C(\C)[C@H](OC(N)=O)[C@@H](OC)/C=C\C=C(/C)C(=O)NC(=CC1=O)C2=O [GELDANAMYCIN]
selectivity ratio [2]: 2.45 | selectivity ratio [3]: 2.15 | IC50 [4]: 2130 nM | Ratio IC50 [5]: 2.27 | selectivity ratio [6]: 2.92 | selectivity ratio [8]: 2.62
